Experimental data taken from PubChem BioAssay (NCI).
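Compound exposure: 48 hours, 5 concentrations, 96-well plates. GI50 = concentration required for 50% inhibition of growth. TGI is the concentration that stops growth completely.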

Columns and labels:
Assay in all cases: NCI anticancer screen, dose series, 48 h
[1] = system: MCF7 breast
[2] = system: SN12C renal
[3] = system: NCI-H226 lung
[4] = system: SK-MEL-28 melanoma
[5] = system: SNB-75 CNS
[6] = system: 786-0 renal
[7] = system: OVCAR-4 ovarian
[8] = system: SNB-19 CNS
[9] = system: HCT-116 colon
[10] = system: OVCAR-5 ovarian
[11] = system: HL-60(TB) leukemia
[12] = system: NCI-H460 lung
[13] = system: MDA-MB-231 breast
[14] = system: SF-539 CNS
[15] = system: K-562 leukemia
[16] = system: HT29 colon
[17] = system: CAKI-1 renal
[18] = system: HOP-62 NSCLC
[19] = system: U251 CNS
[20] = system: DU-145 prostate
[21] = system: IGROV1 ovarian
[22] = system: CCRF-CEM leukemia
[23] = system: M14 melanoma
[24] = system: RXF 393 renal
[25] = system: HCC-2998 colon
[26] = system: LOX IMVI melanoma
[27] = system: A549 NSCLC
[28] = system: SF-268 CNS
[29] = system: SF-295 CNS
[30] = system: SW-620 colon
[31] = system: UACC-257 melanoma
[32] = system: A498 renal
[33] = system: ACHN renal
[34] = system: HS 578T breast
[35] = system: SK-MEL-2 melanoma
[36] = system: EKVX NSCLC
[37] = system: PC-3 prostate
[38] = system: UACC-62 melanoma
[39] = system: NCI/ADR-RES ovarian
[40] = system: BT-549 breast
[41] = system: TK-10 renal
[42] = system: KM12 colon
[43] = system: RPMI-8226 leukemia
[44] = system: OVCAR-8 ovarian
[45] = system: SK-MEL-5 melanoma
[46] = system: UO-31 renal
[47] = system: NCI-H23 lung
[48] = system: COLO 205 colon
[49] = system: SR leukemia
[50] = system: MOLT-4 leukemia
[51] = system: MALME-3M melanoma
[52] = system: OVCAR-3 ovarian
[53] = system: HCT-15 colon
[54] = system: SK-OV-3 ovarian
[55] = system: NCI-H522 lung
[56] = system: T-47D breast
[57] = system: HOP-92 NSCLC
[58] = system: MDA-MB-435

For `COc1ccc2c(c1)sc1nc(-c3ccccc3)c(-c3cccc4ccccc34)n12`, the GI50 [1] was 0.835 µM, the TGI [1] was > 33.4 µM and the GI50 [2] was 1.02 µM. The TGI [2] was > 100 µM, the GI50 [3] was 0.604 µM and the TGI [3] was 5.28 µM. For the same compound, the GI50 [4] was 0.417 µM, the TGI [4] was > 100 µM and the GI50 [5] was 0.386 µM. For the same compound, the TGI [5] was > 100 µM, the GI50 [6] was 0.848 µM and the TGI [6] was > 100 µM. The GI50 [7] was 2.87 µM, the TGI [7] was > 100 µM and the GI50 [8] was 0.589 µM. The TGI [8] was > 100 µM, the GI50 [9] was 0.615 µM and the TGI [9] was > 100 µM. The GI50 [10] was 2.07 µM, the TGI [10] was > 100 µM and the GI50 [11] was 0.148 µM. The GI50 [12] was 0.416 µM, the TGI [12] was > 35.2 µM and the GI50 [13] was 1.32 µM. The TGI [13] was > 100 µM, the GI50 [14] was 0.385 µM and the GI50 [15] was 0.328 µM. For the same compound, the TGI [15] was > 100 µM, the GI50 [16] was 0.353 µM and the TGI [16] was 4.38 µM. The GI50 [17] was 0.792 µM, the TGI [17] was > 100 µM and the GI50 [18] was 0.538 µM. The GI50 [19] was 0.447 µM, the TGI [19] was > 100 µM and the GI50 [20] was 0.767 µM. The TGI [20] was > 31.9 µM, the GI50 [21] was 2.07 µM and the TGI [21] was > 100 µM. For the same compound, the GI50 [22] was 0.45 µM, the TGI [22] was > 100 µM and the GI50 [23] was 0.475 µM. The TGI [23] was > 100 µM, the GI50 [24] was 0.249 µM and the TGI [24] was 1.29 µM. The GI50 [25] was 1.53 µM, the TGI [25] was 36.6 µM and the GI50 [26] was 0.713 µM. The TGI [26] was > 100 µM, the GI50 [27] was 0.816 µM and the TGI [27] was > 100 µM. For the same compound, the GI50 [28] was 0.878 µM, the TGI [28] was > 100 µM and the GI50 [29] was 0.415 µM. The GI50 [30] was 0.346 µM, the TGI [30] was > 100 µM and the GI50 [31] was 0.532 µM. The TGI [31] was > 100 µM, the GI50 [32] was 0.601 µM and the TGI [32] was > 30 µM. The GI50 [33] was 0.76 µM, the TGI [33] was > 100 µM and the TGI [34] was > 100 µM. The GI50 [35] was 1.67 µM, the TGI [35] was > 100 µM and the GI50 [36] was 1.61 µM. The TGI [36] was > 100 µM, the GI50 [37] was 0.5 µM and the TGI [37] was > 100 µM. The GI50 [38] was 0.414 µM, the TGI [38] was > 100 µM and the GI50 [39] was 0.47 µM. The TGI [39] was > 100 µM, the GI50 [40] was 1.15 µM and the TGI [40] was > 93.2 µM. The GI50 [41] was 5.17 µM, the TGI [41] was > 100 µM and the GI50 [42] was 0.429 µM. The TGI [42] was > 34.7 µM, the GI50 [43] was 0.99 µM and the TGI [43] was 27.4 µM. The GI50 [44] was 0.771 µM, the TGI [44] was > 100 µM and the GI50 [45] was 0.233 µM. For the same compound, the TGI [45] was 0.856 µM, the GI50 [46] was 1.34 µM and the TGI [46] was > 100 µM. For the same compound, the GI50 [47] was 1.21 µM, the TGI [47] was > 100 µM and the GI50 [48] was 0.292 µM. For the same compound, the TGI [48] was 0.855 µM, the GI50 [49] was 0.323 µM and the TGI [49] was > 100 µM. The GI50 [50] was 0.774 µM, the TGI [50] was > 100 µM and the GI50 [51] was > 100 µM. For the same compound, the TGI [51] was > 100 µM, the GI50 [52] was 0.35 µM and the TGI [52] was 1.46 µM. The GI50 [53] was 0.47 µM, the TGI [53] was > 38.4 µM and the GI50 [54] was 0.369 µM. For the same compound, the TGI [54] was 2.79 µM, the GI50 [55] was 0.661 µM and the TGI [55] was 28.2 µM. The GI50 [56] was 4.38 µM and the TGI [56] was > 62.2 µM.
`Cc1nc2sccn2c1-c1csc(Nc2ccccc2Cl)n1` showed a GI50 [1] of 2.81 µM, a TGI [1] of 23 µM and a GI50 [2] of 3.58 µM. The TGI [2] was > 100 µM, the GI50 [3] was 3.38 µM and the TGI [3] was 45.1 µM. For the same compound, the GI50 [4] was 6.24 µM, the TGI [4] was > 100 µM and the GI50 [57] was 0.798 µM. For the same compound, the TGI [57] was 7.08 µM, the GI50 [5] was 4.08 µM and the TGI [5] was 60.3 µM. For the same compound, the GI50 [6] was 3.47 µM, the TGI [6] was 15.7 µM and the GI50 [7] was 2.35 µM. The TGI [7] was 83.5 µM, the GI50 [8] was 10.3 µM and the TGI [8] was > 100 µM. The GI50 [9] was 3.3 µM, the TGI [9] was 16.2 µM and the GI50 [10] was 9.58 µM. For the same compound, the TGI [10] was 75.1 µM, the GI50 [11] was 3 µM and the TGI [11] was 29.2 µM. For the same compound, the GI50 [12] was 3.19 µM, the TGI [12] was 15.8 µM and the GI50 [13] was 3.33 µM. It also gave a TGI [13] of 27 µM, a GI50 [14] of 3.2 µM and a TGI [14] of 16.3 µM. For the same compound, the GI50 [15] was 0.586 µM, the TGI [15] was 17.1 µM and the GI50 [16] was 3.08 µM. It also gave a TGI [16] of 13.6 µM, a GI50 [17] of 3.06 µM and a TGI [17] of 40.7 µM. For the same compound, the GI50 [18] was 4.75 µM, the TGI [18] was 70.5 µM and the GI50 [19] was 3.7 µM. It also gave a TGI [19] of 24.1 µM, a GI50 [20] of 7.87 µM and a TGI [20] of 68.8 µM. The GI50 [21] was 5.45 µM, the TGI [21] was 50 µM and the GI50 [22] was 3.32 µM. It also gave a TGI [22] of 53.2 µM, a GI50 [23] of 3.38 µM and a TGI [23] of 18 µM. It also gave a GI50 [24] of 1.9 µM, a TGI [24] of 7.09 µM and a GI50 [25] of 6.25 µM. For the same compound, the TGI [25] was 45.3 µM, the GI50 [26] was 4.4 µM and the TGI [26] was 21.6 µM. For the same compound, the GI50 [27] was 2.98 µM, the TGI [27] was 44.4 µM and the GI50 [28] was 8.33 µM. The TGI [28] was 86.5 µM, the GI50 [29] was 1.55 µM and the TGI [29] was 5.98 µM. It also gave a GI50 [30] of 3.22 µM, a TGI [30] of 25.9 µM and a GI50 [31] of 3.69 µM. The TGI [31] was 17.9 µM, the GI50 [32] was 1.24 µM and the TGI [32] was 12.7 µM. The GI50 [33] was 4.52 µM, the TGI [33] was 62.3 µM and the GI50 [34] was 6.92 µM. For the same compound, the TGI [34] was > 100 µM, the GI50 [35] was 3.83 µM and the TGI [35] was 17.9 µM. It also gave a GI50 [37] of 4.09 µM, a TGI [37] of 37.5 µM and a GI50 [38] of 3.05 µM. It also gave a TGI [38] of 23.3 µM, a GI50 [39] of 2.61 µM and a TGI [39] of 14.5 µM. The GI50 [40] was 3.6 µM, the TGI [40] was 23.4 µM and the GI50 [41] was 4.44 µM. It also gave a TGI [41] of 48.8 µM, a GI50 [42] of 2.61 µM and a TGI [42] of 24.5 µM. The GI50 [43] was 1.93 µM, the TGI [43] was 19.1 µM and the GI50 [44] was 6.05 µM. It also gave a TGI [44] of 45.2 µM, a GI50 [45] of 2.15 µM and a TGI [45] of 10.3 µM. For the same compound, the GI50 [46] was 3.21 µM, the TGI [46] was 33.6 µM and the GI50 [58] was 0.69 µM. The TGI [58] was 8.61 µM, the GI50 [47] was 2.28 µM and the TGI [47] was 35.4 µM. The GI50 [48] was 5.87 µM, the TGI [48] was 21 µM and the GI50 [50] was 3.28 µM. For the same compound, the TGI [50] was 17 µM, the GI50 [51] was 3.55 µM and the TGI [51] was 22.1 µM. The GI50 [52] was 3.18 µM, the TGI [52] was 19.1 µM and the GI50 [53] was 2.64 µM. For the same compound, the TGI [53] was 32.5 µM, the GI50 [54] was 8.4 µM and the TGI [54] was 75.2 µM. For the same compound, the GI50 [55] was 2.08 µM, the TGI [55] was 15.7 µM and the GI50 [56] was 2.33 µM. It also gave a TGI [56] of 66.5 µM.
